The compounds below were run against T1, Substance-P receptor (Homo sapiens, UniProt P25103) (assay: Inhibitory concentration for displacement of [3H]-Substance P (SP) in human IM-9 cells). Conditions: not given.
T1 sequence (P25103 whole entry): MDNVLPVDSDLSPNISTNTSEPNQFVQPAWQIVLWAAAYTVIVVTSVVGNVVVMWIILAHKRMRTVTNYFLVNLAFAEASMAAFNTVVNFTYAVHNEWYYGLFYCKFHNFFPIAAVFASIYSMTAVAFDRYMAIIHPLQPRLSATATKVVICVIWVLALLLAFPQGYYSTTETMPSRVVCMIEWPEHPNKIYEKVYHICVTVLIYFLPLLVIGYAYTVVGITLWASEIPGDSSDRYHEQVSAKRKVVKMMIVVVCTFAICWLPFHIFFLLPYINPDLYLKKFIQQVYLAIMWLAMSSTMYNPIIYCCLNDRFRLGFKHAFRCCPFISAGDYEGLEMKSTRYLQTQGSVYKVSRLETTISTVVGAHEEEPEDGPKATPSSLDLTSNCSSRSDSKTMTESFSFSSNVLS
Assay type: cell-based
`COc1ccccc1CN[C@@H]1C2CCN(CC2)[C@H]1c1ccccc1` showed an IC50 of 700 nM.
`COc1ccccc1CN[C@H]1C2CCN(CC2)[C@H]1c1cccc(Cl)c1` was tested, and the IC50 was 20 nM.
For `COc1ccc(CN[C@H]2C3CCN(CC3)[C@@H]2c2cccc(Cl)c2)c(OC)c1`, the IC50 was 350 nM.
`COc1ccccc1CN[C@H]1C2CCN(CC2)[C@H]1c1ccccc1` showed an IC50 of 140 nM.
For `Clc1cccc([C@H]2[C@@H](NCc3ccccc3Cl)C3CCN2CC3)c1`, the IC50 was 230 nM.
`COc1ccccc1CN[C@@H]1C2CCN(CC2)[C@H]1c1cccc(Cl)c1` gave an IC50 of 240 nM.
In the case of `COc1cccc([C@H]2[C@@H](NCc3ccccc3OC)C3CCN2CC3)c1`, the IC50 is reported as 160 nM.
`COc1ccc(CN[C@@H]2C3CCN(CC3)[C@@H]2c2cccc(Cl)c2)c(OC)c1` (single isomer, unassigned) was tested, and the IC50 was 39 nM.

Each compound was assayed against T1, Substance-P receptor (assay: Tested for Tachykinin receptor 1 antagonistic activity in dog isolated carotid artery(DCA) system at a concentration of 5*10e-6 M). Conditions: Canis lupus familiaris; target entry is the homologue from another species.
Assay type: functional
In the case of `COc1ccc(CN[C@H]2C3CCN(CC3)[C@H]2c2cccc(Cl)c2)c(OC)c1`, the pKB is reported as 7.

From ChEMBL document CHEMBL1127272, “2-Aryl-1-azabicyclo[2.2.2]octanes as novel nonpeptide substance P antagonists” (Bioorg Med Chem Lett, 1994)
